Structures are written as SMILES. Converted amounts (≈) assume the structure as drawn.

What is called pKa is the negative logarithm of the acid dissociation constant.

For series [1] the following is noted: cited from earlier work.
A short description of series [2]: Neutralization of an aqueous solution of SAM-e tosylate with buffering agents to pH 7. It is filed as physicochemical. The note with it: for Final pH: SAMe tosylate 400 mg/100 mL after addition of the neutralizing agent; for Initial pH / Stabilization time: SAMe tosylate 400 mg/100 mL; for Initial pH: before addition of the neutralizing agent; for Neutralizing agents added amount: added to SAMe tosylate 400 mg/100 mL until neutralization. The protocol:
(§1) After measuring the pH, the solution was gradually added with buffering substance until neutralization and a pH 7 value were reached. As it can be seen from the table below (Table 9), the amount of Lysine and Potassium Citrate tribasic appear to be excessive to consider their use in commercial pharmaceutical forms. More precisely, from the table it can be noted that 15.4 g of Lysine fail to bring the SAMe solution to neutralization (the pH value remains 4).
SAMe tosilate concentration: 400 mg/100 mL

The conditions of series [3]: cited from earlier work. This is another data set of the same source.
The nature of series [4]: Neutralization of aqueous solutions of other acid active ingredients with L-Arginine. It is filed as physicochemical. The note with it: aqueous solution containing 1 g of the active ingredient.
Excerpt: as §1
Based on the excellent neutralization results obtained with L-Arginine, the same method was used to analyze the amount of L-Arginine necessary to neutralize a solution including other acid active ingredients (results below): • An aqueous solution containing 1 g of N-Acetyl-Cysteine is neutralized with 1.086 g of L-Arginine • An aqueous solution containing 1 g of L-Acetyl-Carnitine is neutralized with 0.736 g of L-Arginine

Take `N[C@@H](CC(=O)O)C(=O)O` [Aspartic Acid]: the pKa in series [1] was 1.7.
In the case of `N=C(N)NCCC[C@H](N)C(=O)O` [Arginine], in series [2], the “Final pH” value stood at 7.0, the “Initial pH” value stood at 2.08 and the “Neutralizing agents added amount” value was 375 mg.
Turning to `O=C([O-])[O-].[Na+].[Na+]` [Sodium carbonate], in series [2], the Stabilization time is less than 3 min, the “Final pH” value is reported as 7.0, the “Initial pH” value is listed as 2.10 and the “Neutralizing agents added amount” value is 200 mg.
Consider `[O]=[Mg]` [Light magnesium oxide], for which, in series [2], the “Final pH” value is reported as 7.1, the “Initial pH” value is reported as 2.08 and the “Neutralizing agents added amount” value is 44.91 mg.
Take `CC(=O)SC[C@H](NC(=O)CC[C@H](N)C(=O)O)C(=O)NCC(=O)O` [S-acetyl-L-glutatione]: the pKa in series [1] is on record as 1.75.
Take `O=C(O)CCCC[C@@H]1CCSS1` (racemic) [Lipoic acid]: in series [1], the pKa is given as 4.52.
Regarding `CC(=O)O[C@H](CC(=O)[O-])C[N+](C)(C)C` [L-Acetyl Carnitine], in series [1], the pKa was 4.09. In addition, the Solubility in water in series [3] is 142000 µg/mL (≈ 699 mM). In series [4], the “Amount of L-Arginine needed to neutralize” value is reported as 0.736 g.
Consider `CC(=O)N[C@@H](CS)C(=O)O` [N-Acetyl Cysteine], for which the Solubility in water in series [3] was 5090 µg/mL (≈ 31.2 mM). The “Amount of L-Arginine needed to neutralize” value in series [4] is given as 1.086 g.
With `O=C1O[C@H]([C@@H](O)CO)C(O)=C1O` [Ascorbic Acid], in series [1], the pKa is given as 4.36.
Consider `O=C([O-])O.[Na+]` [Sodium bicarbonate], for which, in series [2], the Stabilization time is less than 3 min, the “Final pH” value amounted to 7.0, the “Initial pH” value was 2.08 and the “Neutralizing agents added amount” value was found to be 690 mg.
The corresponding values for `O=C([O-])CC(O)(CC(=O)[O-])C(=O)[O-].[K+].[K+].[K+]` [Potassium citrate tribasic] are less than 3 min, 7.0, 2.10 and 14943 mg.
`CC(C)(O)CC(=O)O` [Hydroxy-methyl-butyrate, 3-hydroxy-3-methylbutyric acid]: the pKa in series [1] is on record as 4.4. Besides, the Solubility in water in series [3] is 15000 µg/mL (≈ 127 mM).
Turning to `N[C@@H](CCC(=O)O)C(=O)O` [Glutamic acid], in series [1], the pKa is recorded as 1.88.
For `C[S+](CC[C@H](N)C(=O)[O-])C[C@H]1O[C@@H](n2cnc3c(N)ncnc32)[C@H](O)[C@@H]1O` (stereo partly drawn) [SAMe, S-Adenosyl-l-methionine], in series [1], the pKa is on record as 1.7. The Solubility in water in series [3] was 1190 µg/mL (≈ 2.99 mM).
On to `NCCCC[C@H](N)C(=O)O` [Lysine], for which the “Amount of neutralizing agent added” value in series [2] (SAMe solution, neutralization not reached) was found to be 15.4 g. Besides, in series [2], the “Final pH” value is on record as 4, the “Initial pH” value came out at 2.08 and the “Neutralizing agents added amount” value was determined as 15402 mg.
Take `O=P([O-])([O-])[O-].[Na+].[Na+].[Na+]` [Sodium phosphate tribasic]: in series [2], the Stabilization time is less than 3 min, the “Final pH” value is 7.0, the “Initial pH” value is 2.09 and the “Neutralizing agents added amount” value was found to be 510 mg.
In the case of `CC(=O)Oc1ccccc1C(=O)O` [Acetylsalicylic acid], the Solubility in water in series [3] is 1460 µg/mL (≈ 8.1 mM).
Take `C[N+](C)(C)C[C@H](O)CC(=O)[O-]` [Levocarnitine]: in series [1], the pKa is on record as 4.2. The Solubility in water in series [3] was 5330 µg/mL (≈ 33.1 mM).
